The values below come from ChEMBL document CHEMBL1909511, “Inhalation by design: novel tertiary amine muscarinic M₃ receptor antagonists with slow off-rate binding kinetics for inhaled once-daily treatment of chronic obstructive pulmonary disease” (J Med Chem, 2011).

Series [1] has as its system Canis familiaris. Kind of series: Bronchodilator activity in Beagle dog assessed as inhibition of methacholine-induced lung resistance after cumulative intratracheal administration in micelle solution at hourly intervals challenged each time 1 hr later with methacholine. In kind it is functional, Canis lupus familiaris.
Series [2] concerns the target T1, Muscarinic acetylcholine receptor M3 (Homo sapiens, UniProt P20309). Description: Displacement of [3H]-NMS from human recombinant M3 receptor expressed in CHO cells after 24 hrs by filter binding assay. It counts as cell-based.
Target sequence in this assay (P20309 whole entry): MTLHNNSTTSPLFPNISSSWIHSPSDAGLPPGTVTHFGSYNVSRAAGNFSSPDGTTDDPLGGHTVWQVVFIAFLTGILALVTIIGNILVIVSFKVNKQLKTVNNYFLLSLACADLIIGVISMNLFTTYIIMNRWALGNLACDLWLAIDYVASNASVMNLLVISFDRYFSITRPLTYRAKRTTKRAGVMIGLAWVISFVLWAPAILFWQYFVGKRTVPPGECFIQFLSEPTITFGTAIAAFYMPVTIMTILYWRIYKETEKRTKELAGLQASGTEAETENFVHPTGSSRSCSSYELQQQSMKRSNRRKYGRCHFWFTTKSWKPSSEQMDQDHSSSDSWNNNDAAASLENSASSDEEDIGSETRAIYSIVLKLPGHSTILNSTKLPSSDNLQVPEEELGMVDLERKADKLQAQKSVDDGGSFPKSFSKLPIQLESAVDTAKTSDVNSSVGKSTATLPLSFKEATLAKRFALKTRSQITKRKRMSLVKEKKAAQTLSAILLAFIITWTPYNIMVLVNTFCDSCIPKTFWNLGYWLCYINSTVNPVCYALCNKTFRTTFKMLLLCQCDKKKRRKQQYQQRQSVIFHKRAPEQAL
Series [3] deals with T2, Muscarinic acetylcholine receptor M5 (Homo sapiens) (UniProt P08912).
T2 sequence (whole entry): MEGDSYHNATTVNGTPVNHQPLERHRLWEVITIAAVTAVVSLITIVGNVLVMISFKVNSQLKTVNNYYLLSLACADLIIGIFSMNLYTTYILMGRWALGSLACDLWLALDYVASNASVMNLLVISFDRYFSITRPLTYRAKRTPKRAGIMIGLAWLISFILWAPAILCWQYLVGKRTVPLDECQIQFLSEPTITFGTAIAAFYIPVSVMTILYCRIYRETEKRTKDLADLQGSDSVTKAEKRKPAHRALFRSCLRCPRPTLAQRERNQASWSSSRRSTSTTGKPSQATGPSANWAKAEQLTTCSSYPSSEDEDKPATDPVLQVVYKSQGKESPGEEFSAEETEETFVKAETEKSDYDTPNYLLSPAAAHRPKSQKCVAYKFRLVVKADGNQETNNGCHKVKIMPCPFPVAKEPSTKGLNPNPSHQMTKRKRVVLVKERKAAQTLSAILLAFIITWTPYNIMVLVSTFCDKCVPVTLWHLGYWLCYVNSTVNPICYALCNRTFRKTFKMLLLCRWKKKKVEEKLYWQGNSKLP
Kind of series: Displacement of [3H]-NMS from human recombinant M5 receptor expressed in CHO cells assessed as dissociation half life at 100 fold human M5 receptor binding Ki concentration after 24 hrs by dilution-offset filter binding assay. In kind it is cell-based.

Series [4] has as its system Canis familiaris. Description: Toxicity in methacholine challenged Beagle dog assessed effect on heart rate at 10 ug intratracheally administered as single dose in micelle solution. In kind it is organism-based, Canis lupus familiaris. To be noted: in vivo, inhaled_or_intranasal.
Series [5] deals with Oryctolagus cuniculus. Description: Toxicity in rabbit lung cough model assessed as induction of cough production at 2000 ug administered intratracheally. To be noted: in vivo, inhaled_or_intranasal. It counts as organism-based.
The nature of series [6]: Intrinsic clearance in human liver microsomes assessed per mg of protein in presence of NADPH. In general terms: Liver microsomes are a subcellular fraction often used to study metabolism.
Series [7] concerns the target T3, Muscarinic acetylcholine receptor M4 (Homo sapiens, UniProt P08173).
T3 sequence (P08173 whole entry): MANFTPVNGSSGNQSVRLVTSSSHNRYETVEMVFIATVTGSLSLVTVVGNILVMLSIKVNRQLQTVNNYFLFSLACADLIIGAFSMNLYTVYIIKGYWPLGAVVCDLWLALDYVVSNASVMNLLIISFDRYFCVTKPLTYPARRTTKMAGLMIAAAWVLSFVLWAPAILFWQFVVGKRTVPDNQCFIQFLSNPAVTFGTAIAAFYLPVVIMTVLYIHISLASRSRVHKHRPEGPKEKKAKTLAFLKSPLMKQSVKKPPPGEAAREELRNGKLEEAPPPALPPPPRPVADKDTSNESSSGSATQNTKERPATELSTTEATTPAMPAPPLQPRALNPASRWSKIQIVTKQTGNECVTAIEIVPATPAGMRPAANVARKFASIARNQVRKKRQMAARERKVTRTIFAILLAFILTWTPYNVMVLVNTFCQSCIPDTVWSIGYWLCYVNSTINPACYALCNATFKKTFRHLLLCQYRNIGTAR
Kind of series: Displacement of [3H]-NMS from human recombinant M4 receptor expressed in CHO cells after 24 hrs by filter binding assay. In kind it is cell-based. (In general: Loss of bound radioactivity is the signal in a displacement assay; it reports binding, not function.)

Series [8] has as its target T1, Muscarinic acetylcholine receptor M3.
Target sequence in this assay (P20309 whole entry, looked up): as the sequence (P20309 whole entry) above
Description: Displacement of radioligand from M3 receptor assessed as dissociation half life
Series [9] is described as follows: Volume of distribution at steady state in iv dosed rat. In kind it is ADME, organism-based. To be noted: in vivo, read-out: Vdss.
The nature of series [10]: Half life in iv dosed rat. The conditions noted are these: in vivo. In kind it is ADME, organism-based.
Series [11] concerns the target Muscarinic acetylcholine receptor M3 (Cavia porcellus, UniProt Q8VH26). Description: Antagonist activity at M3 receptor in Dunkin-Hartley guinea pig tracheal strips assessed as inhibition of electrically field-stimulated contractile response after 8 hrs. In kind it is functional.
Series [12] concerns the target T4, Muscarinic acetylcholine receptor M2 (Homo sapiens) (UniProt P08172).
T4 sequence (whole entry): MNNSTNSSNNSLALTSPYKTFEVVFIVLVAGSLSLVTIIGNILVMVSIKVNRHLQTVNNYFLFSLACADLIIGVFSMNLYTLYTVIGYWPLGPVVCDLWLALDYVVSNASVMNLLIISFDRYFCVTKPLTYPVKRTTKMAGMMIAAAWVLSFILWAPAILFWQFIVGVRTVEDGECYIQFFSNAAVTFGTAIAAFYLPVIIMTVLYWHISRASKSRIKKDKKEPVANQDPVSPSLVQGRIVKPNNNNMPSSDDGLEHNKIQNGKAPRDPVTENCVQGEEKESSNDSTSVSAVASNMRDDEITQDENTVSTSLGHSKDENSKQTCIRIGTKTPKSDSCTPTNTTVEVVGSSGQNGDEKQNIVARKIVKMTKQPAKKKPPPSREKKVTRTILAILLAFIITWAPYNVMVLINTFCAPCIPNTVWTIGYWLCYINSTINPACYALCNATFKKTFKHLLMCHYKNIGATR
Kind of series: Displacement of [3H]-NMS from human recombinant M2 receptor expressed in CHO cells assessed as dissociation half life at 100 fold human M2 receptor binding Ki concentration after 24 hrs by dilution-offset filter binding assay. In kind it is cell-based.

In series [13] the target is T5, Muscarinic acetylcholine receptor M1 (Homo sapiens, UniProt P11229).
T5 sequence (P11229 whole entry): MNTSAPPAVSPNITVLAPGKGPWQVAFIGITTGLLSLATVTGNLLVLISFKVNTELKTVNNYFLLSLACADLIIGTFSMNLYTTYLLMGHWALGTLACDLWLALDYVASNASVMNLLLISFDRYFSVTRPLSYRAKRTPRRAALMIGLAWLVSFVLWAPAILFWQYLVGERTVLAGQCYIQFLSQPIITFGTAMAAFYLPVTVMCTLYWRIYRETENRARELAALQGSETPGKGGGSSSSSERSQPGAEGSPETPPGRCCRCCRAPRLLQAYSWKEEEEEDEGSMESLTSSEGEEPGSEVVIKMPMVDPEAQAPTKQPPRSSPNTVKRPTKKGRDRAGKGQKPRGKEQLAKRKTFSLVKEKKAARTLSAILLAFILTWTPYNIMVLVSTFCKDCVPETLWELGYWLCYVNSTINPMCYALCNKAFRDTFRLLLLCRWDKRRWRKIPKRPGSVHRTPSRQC
Description: Displacement of [3H]-NMS from human recombinant M1 receptor expressed in CHO cells after 24 hrs by filter binding assay. It counts as cell-based.

Series [14] has as its target T1, Muscarinic acetylcholine receptor M3. The source holds these as a separate data set.
Target sequence in this assay (P20309 whole entry, looked up): as the sequence (P20309 whole entry) above

Sequence of Muscarinic acetylcholine receptor M3 (Cavia porcellus, UniProt Q8VH26) (Q8VH26 whole entry): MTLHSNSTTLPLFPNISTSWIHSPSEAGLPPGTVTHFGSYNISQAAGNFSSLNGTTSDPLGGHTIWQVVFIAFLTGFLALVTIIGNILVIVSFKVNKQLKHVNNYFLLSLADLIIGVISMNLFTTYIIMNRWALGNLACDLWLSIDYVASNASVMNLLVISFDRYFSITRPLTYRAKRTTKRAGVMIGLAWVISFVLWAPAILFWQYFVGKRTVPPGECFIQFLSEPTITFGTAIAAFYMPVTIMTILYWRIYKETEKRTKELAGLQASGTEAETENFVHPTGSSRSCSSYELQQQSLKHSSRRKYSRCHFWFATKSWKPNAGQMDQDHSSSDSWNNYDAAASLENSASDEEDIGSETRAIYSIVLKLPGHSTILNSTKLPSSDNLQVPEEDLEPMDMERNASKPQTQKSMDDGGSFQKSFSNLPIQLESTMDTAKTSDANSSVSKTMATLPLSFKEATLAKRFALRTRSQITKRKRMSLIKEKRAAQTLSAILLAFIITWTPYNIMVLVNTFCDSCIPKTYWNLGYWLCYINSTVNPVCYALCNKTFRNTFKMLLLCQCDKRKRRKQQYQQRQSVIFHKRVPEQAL

One may read the Ki as the equilibrium dissociation constant of an inhibitor or competing ligand from its target. The term microsomal CLint denotes the rate of metabolic loss divided by the concentration. Usually half-life stands for how long it takes for the measured level to halve. A lower half-life goes with fast loss. For orientation: IC50 means the concentration at which inhibition is half-maximal. One may read the pKb as the Kb on a negative log10 scale, so that one unit is a factor of ten. Consider `CC(C)(CCC(C(N)=O)(c1ccccc1)c1ccccc1)N1CC(Oc2cccc(O)c2)C1` [PF-03635659], for which the ID50 in series [1] was 3 µg. Further, the inhibition constant (Ki) was 0.128 nM in series [2], 0.115 nM in series [7] and 0.115 nM in series [13]. The T1/2 in series [3] was greater than 16.7 h; in [8] it was 83.3 h; in series [12], 4.38 h. For the same molecule, the results for the Activity entry in series [4] and in series [5] were “Non-toxic” and “Toxic”, respectively. Besides, in series [6], the microsomal CLint is greater than 282 µL/min/mg. Moreover, the Vd in series [9] came to 8.4 L/kg. The same molecule showed a half-life in series [10] of 0.9 h. Besides, the IC50 in series [11] was found to be 1.53 nM. In [14], the pKb was 9.6.
